According to patent publication US20100099561A1, “HETEROBICYCLIC ALKYLTHIO-BRIDGED ISOXAZOLINES” (E.I. DU PONT DE NEMOURS AND COMPANY, priority 2008, published 2010):

What was measured:
Assay type in all cases: in vivo
[1] = test system: morningglory (Ipomoea spp.); experiment: Test A preemergence, morningglory; settings: 0 to 100 scale (0 no effect, 100 complete control)
How it was run: (§1)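 Greenhouse pre/postemergence test, loam–sand soil. Postemergence plants one- to two-leaf, 2–10 cm. Visual injury rating ~10 d after treatment, 0–100 vs untreated.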

[2] = test system: barnyardgrass (Echinochloa crus-galli); experiment: Test A preemergence, barnyardgrass; settings: 0 to 100 scale (0 no effect, 100 complete control)
How it was run: as §1

[3] = test system: velvetleaf (Abutilon theophrasti); experiment: Test A preemergence, velvetleaf; settings: 0 to 100 scale (0 no effect, 100 complete control)
How it was run: as §1

[4] = test system: barnyardgrass (Echinochloa crus-galli); experiment: Test A postemergence, barnyardgrass; settings: 0 to 100 scale (0 no effect, 100 complete control)
How it was run: as §1

[5] = test system: giant foxtail (Setaria faberi); experiment: Test A postemergence, giant foxtail; settings: 0 to 100 scale (0 no effect, 100 complete control)
How it was run: as §1

[6] = test system: barnyardgrass (Echinochloa crus-galli); experiment: Test B flooded paddy test, barnyardgrass; settings: Flood
How it was run: (§2)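 2-leaf plants; pots flooded 3 cm above soil; compound added to paddy water; depth maintained. Greenhouse 13–15 d. Visual rating vs controls, 0 (no effect) to 100 (complete control); dash = no result.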

[7] = test system: large crabgrass (Digitaria sanguinalis); experiment: Test A postemergence, large crabgrass; settings: 0 to 100 scale (0 no effect, 100 complete control)
How it was run: as §1

[8] = test system: morningglory (Ipomoea spp.); experiment: Test A postemergence, morningglory; settings: 0 to 100 scale (0 no effect, 100 complete control)
How it was run: as §1

rice (Oryza sativa) = experiment: Test B flooded paddy test, rice; settings: Flood, scale 0 to 100
How it was run: as §2

[9] = test system: velvetleaf (Abutilon theophrasti); experiment: Test A postemergence, velvetleaf; settings: 0 to 100 scale (0 no effect, 100 complete control)
How it was run: as §1

[10] = test system: giant foxtail (Setaria faberi); experiment: Test A preemergence, giant foxtail; settings: 0 to 100 scale (0 no effect, 100 complete control)
How it was run: as §1

[11] = test system: umbrella sedge (Cyperus difformis); experiment: Test B flooded paddy test, umbrella sedge; settings: Flood, scale 0 to 100
How it was run: as §2

[12] = test system: pigweed (Amaranthus retroflexus); experiment: Test A preemergence, pigweed; settings: 0 to 100 scale (0 no effect, 100 complete control)
How it was run: as §1

[13] = test system: wheat (Triticum aestivum); experiment: Test A postemergence, wheat; settings: 0 to 100 scale (0 no effect, 100 complete control)
How it was run: as §1

corn (Zea mays) [14] = experiment: Test A preemergence, corn; settings: 0 to 100 scale (0 no effect, 100 complete control)
How it was run: as §1

[15] = test system: large crabgrass (Digitaria sanguinalis); experiment: Test A preemergence, large crabgrass; settings: 0 to 100 scale (0 no effect, 100 complete control)
How it was run: as §1

[16] = test system: pigweed (Amaranthus retroflexus); experiment: Test A postemergence, pigweed; settings: 0 to 100 scale (0 no effect, 100 complete control)
How it was run: as §1

[17] = test system: ducksalad (Heteranthera limosa); experiment: Test B flooded paddy test, ducksalad; settings: Flood, scale 0 to 100
How it was run: as §2

[18] = test system: wheat (Triticum aestivum); experiment: Test A preemergence, wheat; settings: 0 to 100 scale (0 no effect, 100 complete control)
How it was run: as §1

corn (Zea mays) [19] = experiment: Test A postemergence, corn; settings: 0 to 100 scale (0 no effect, 100 complete control)
How it was run: as §1

[20] = 250 g ai/ha, scale 0 to 100 (0 no effect, 100 complete control)

CC1(C)CC([S+]([O-])Cc2c(C(F)(F)F)nc3cnccn3c2=O)=NO1 (stereo not shown) [Compound 54]
Plant response rating, Morningglory ([1]; 125 g ai/ha): 0 | Plant response rating, Morningglory ([1]; 500 g ai/ha): 0 | Plant response rating, Barnyardgrass ([2]; 125 g ai/ha): 0 | Plant response rating, Barnyardgrass ([2]; 500 g ai/ha): 0 | Plant response rating, Velvetleaf ([3]; 125 g ai/ha): 0 | Plant response rating, Velvetleaf ([3]; 500 g ai/ha): 0 | Plant response rating, Barnyardgrass ([4]; 125 g ai/ha): 0 | Plant response rating, Barnyardgrass ([4]; 500 g ai/ha): 0 | Plant response rating, Foxtail, Giant ([5]; 125 g ai/ha): 0 | Plant response rating, Foxtail, Giant ([5]; 500 g ai/ha): 50 | Plant response rating, Barnyardgrass ([6]; 62 g ai/ha, scale 0 to 100): 0 | Plant response rating, Barnyardgrass [6, 20]: 0 | Plant response rating, Crabgrass, Large ([7]; 125 g ai/ha): 0 | Plant response rating, Crabgrass, Large ([7]; 500 g ai/ha): 20 | Plant response rating, Morningglory ([8]; 125 g ai/ha): 0 | Plant response rating, Morningglory ([8]; 500 g ai/ha): 10 | Plant response rating, Rice (rice (Oryza sativa); 62 g ai/ha): 0 | Plant response rating, Rice (rice (Oryza sativa); 250 g ai/ha): 0 | Plant response rating, Velvetleaf ([9]; 125 g ai/ha): 0 | Plant response rating, Velvetleaf ([9]; 500 g ai/ha): 0 | Plant response rating, Foxtail, Giant ([10]; 125 g ai/ha): 0 | Plant response rating, Foxtail, Giant ([10]; 500 g ai/ha): 0 | Plant response rating, Sedge, Umbrella ([11]; 62 g ai/ha): 0 | Plant response rating, Sedge, Umbrella ([11]; 250 g ai/ha): 0 | Plant response rating, Pigweed ([12]; 125 g ai/ha): 0 | Plant response rating, Pigweed ([12]; 500 g ai/ha): 0 | Plant response rating, Wheat ([13]; 125 g ai/ha): 0 | Plant response rating, Wheat ([13]; 500 g ai/ha): 0 | Plant response rating, Corn (corn (Zea mays) [14]; 125 g ai/ha): 0 | Plant response rating, Corn (corn (Zea mays) [14]; 500 g ai/ha): 0 | Plant response rating, Crabgrass, Large ([15]; 125 g ai/ha): 0 | Plant response rating, Crabgrass, Large ([15]; 500 g ai/ha): 0 | Plant response rating, Pigweed ([16]; 125 g ai/ha): 0 | Plant response rating, Pigweed ([16]; 500 g ai/ha): 0 | Plant response rating, Ducksalad ([17]; 62 g ai/ha): 0 | Plant response rating, Ducksalad ([17]; 250 g ai/ha): 0 | Plant response rating, Wheat ([18]; 125 g ai/ha): 0 | Plant response rating, Wheat ([18]; 500 g ai/ha): 0 | Plant response rating, Corn (corn (Zea mays) [19]; 125 g ai/ha): 0 | Plant response rating, Corn (corn (Zea mays) [19]; 500 g ai/ha): 0

CC1(C)CC(S(=O)(=O)Cc2c(C(F)(F)C(F)(F)F)nc3n(c2=O)CCCO3)=NO1 [Compound 55]
Plant response rating, Morningglory ([1]; 125 g ai/ha): 0 | Plant response rating, Morningglory ([1]; 500 g ai/ha): 50 | Plant response rating, Barnyardgrass ([2]; 125 g ai/ha): 50 | Plant response rating, Barnyardgrass ([2]; 500 g ai/ha): 80 | Plant response rating, Velvetleaf ([3]; 125 g ai/ha): 0 | Plant response rating, Velvetleaf ([3]; 500 g ai/ha): 30 | Plant response rating, Barnyardgrass ([4]; 125 g ai/ha): 70 | Plant response rating, Barnyardgrass ([4]; 500 g ai/ha): 90 | Plant response rating, Foxtail, Giant ([5]; 125 g ai/ha): 70 | Plant response rating, Foxtail, Giant ([5]; 500 g ai/ha): 80 | Plant response rating, Barnyardgrass ([6]; 31 g ai/ha, scale 0 to 100): 0 | Plant response rating, Barnyardgrass ([6]; 62 g ai/ha, scale 0 to 100): 0 | Plant response rating, Barnyardgrass ([6]; 125 g ai/ha, scale 0 to 100): 0 | Plant response rating, Barnyardgrass [6, 20]: 0 | Plant response rating, Crabgrass, Large ([7]; 125 g ai/ha): 30 | Plant response rating, Crabgrass, Large ([7]; 500 g ai/ha): 70 | Plant response rating, Morningglory ([8]; 125 g ai/ha): 10 | Plant response rating, Morningglory ([8]; 500 g ai/ha): 20 | Plant response rating, Rice (rice (Oryza sativa); 31 g ai/ha): 0 | Plant response rating, Rice (rice (Oryza sativa); 62 g ai/ha): 0 | Plant response rating, Rice (rice (Oryza sativa); 125 g ai/ha): 0 | Plant response rating, Rice (rice (Oryza sativa); 250 g ai/ha): 0 | Plant response rating, Velvetleaf ([9]; 125 g ai/ha): 0 | Plant response rating, Velvetleaf ([9]; 500 g ai/ha): 30 | Plant response rating, Foxtail, Giant ([10]; 125 g ai/ha): 80 | Plant response rating, Foxtail, Giant ([10]; 500 g ai/ha): 90 | Plant response rating, Sedge, Umbrella ([11]; 31 g ai/ha): 0 | Plant response rating, Sedge, Umbrella ([11]; 62 g ai/ha): 0 | Plant response rating, Sedge, Umbrella ([11]; 125 g ai/ha): 0 | Plant response rating, Sedge, Umbrella ([11]; 250 g ai/ha): 0 | Plant response rating, Pigweed ([12]; 125 g ai/ha): 0 | Plant response rating, Pigweed ([12]; 500 g ai/ha): 40 | Plant response rating, Wheat ([13]; 125 g ai/ha): 0 | Plant response rating, Wheat ([13]; 500 g ai/ha): 30 | Plant response rating, Corn (corn (Zea mays) [14]; 125 g ai/ha): 0 | Plant response rating, Corn (corn (Zea mays) [14]; 500 g ai/ha): 0 | Plant response rating, Crabgrass, Large ([15]; 125 g ai/ha): 0 | Plant response rating, Crabgrass, Large ([15]; 500 g ai/ha): 90 | Plant response rating, Pigweed ([16]; 125 g ai/ha): 0 | Plant response rating, Pigweed ([16]; 500 g ai/ha): 10 | Plant response rating, Ducksalad ([17]; 31 g ai/ha): 0 | Plant response rating, Ducksalad ([17]; 62 g ai/ha): 0 | Plant response rating, Ducksalad ([17]; 125 g ai/ha): 0 | Plant response rating, Ducksalad ([17]; 250 g ai/ha): 0 | Plant response rating, Wheat ([18]; 125 g ai/ha): 0 | Plant response rating, Wheat ([18]; 500 g ai/ha): 20 | Plant response rating, Corn (corn (Zea mays) [19]; 125 g ai/ha): 0 | Plant response rating, Corn (corn (Zea mays) [19]; 500 g ai/ha): 0
